Experimental data as given in publication PMC5147771, “High-Resolution Genetics Identifies the Lipid Transfer Protein Sec14p as Target for Antifungal Ergolines” (PLoS Genetics, 2016).
“Also recorded” adds a separate entry of the source. Read-outs that look alike come from different tables or passages of the source.

Tests used:
C. neoformans ATCC 90113 = assay: C. neoformans growth inhibition (CLSI M27-A3 broth microdilution); type: cell-based; details: for MIC: Cryptococcus neoformans, ATCC90113, 72 h
Excerpt: (§1) Sec14p is reported to be essential for virulence as well as for growth in C. neoformans. The S. cerevisiae and C. neoformans proteins show 53% similarity by pair-wise alignment with higher conservation of the residues in the lipid-binding pocket (S2 Fig). Furthermore, three of the four sites identified to be critical for NGx04 sensitivity, are conserved (S2 Fig). In combination with the current high unmet medical need related to Cryptococcus infections we prioritized testing of NGx04 and 18 related ergoline scaffold analogs against this pathogen. Two clinical isolates of C. neoformans (ATCC 36556 and ATCC 90113) were plated in triplicates on increasing drug concentrations and MIC-2 (50% inhibition) and MIC-0 (no visible fungal growth) concentrations were scored after 72 hrs. (Fig 5).
(§2) C. neoformans strains ATCC 36556, a lung isolate, and ATCC 90113, a cerebrospinal fluid isolate, were purchased from ATCC, Manassas, VA (USA). BPY22 was obtained from.
(§3) Antifungal susceptibility testing was conducted according to the Clinical and Laboratory Standards Institute (CLSI) guidelines for broth microdilution assay M27-A3. Testing was performed in RPMI-1640 (HyClone) with 2.05 mM glutamine, phenol red, without bicarbonate and buffered with 0.165 mol/l 3-(N-morpholino) propanesulfonic acid (MOPS). The medium was adjusted to pH 7.0 and sterilized with a 0.2 μm filter. Two endpoints were recorded: MIC-0 (complete inhibition with no visible fungal growth) and MIC-2 (prominent inhibition corresponding to >50% growth reduction).

C. neoformans ATCC 36556 = assay: as above; type: cell-based; details: for MIC: Cryptococcus neoformans, ATCC36556, 72 h; for C. neoformans growth inhibition (in words): clinical isolates ATCC 36556 and ATCC 90113, tested dose range
Excerpt: as §1, §2, §3

[1] = 50% inhibition, 72 h, triplicate values printed singly, read-out: ATCC90113 MIC-2
[2] = no visible fungal growth, 72 h, triplicate values printed singly, read-out: ATCC90113 MIC-0
[3] = 50% inhibition, 72 h, triplicate values printed singly
[4] = 50% inhibition, 72 h, triplicate values printed singly, read-out: ATCC36556 MIC-2
[5] = no visible fungal growth, 72 h, triplicate values printed singly, read-out: ATCC36556 MIC-0
[6] = no visible fungal growth, 72 h, triplicate values printed singly

MIC (C. neoformans ATCC 90113; [1]) | MIC (C. neoformans ATCC 90113; [2]) | ATCC36556 MIC-2 (C. neoformans ATCC 36556; [3]) | MIC (C. neoformans ATCC 36556; [4]) | MIC (C. neoformans ATCC 36556; [5]) | Compound | ATCC36556 MIC-0 (C. neoformans ATCC 36556; [6]) | MIC (C. neoformans ATCC 90113; read-out: ATCC90113 MIC-0) | MIC (C. neoformans ATCC 90113; read-out: ATCC90113 MIC-2) | MIC (C. neoformans ATCC 36556; read-out: ATCC36556 MIC-0) | MIC (C. neoformans ATCC 36556; read-out: ATCC36556 MIC-2) | C. neoformans growth inhibition (in words) (C. neoformans ATCC 36556) | ATCC90113 MIC-0 (C. neoformans ATCC 90113; [6]) | ATCC90113 MIC-2 (C. neoformans ATCC 90113; [3])
> 50 µg/mL | > 50 µg/mL | – | > 50 µg/mL | > 50 µg/mL | COC(=O)[C@@H]1C[C@@H]2c3cc(O)cc4c3[C@H](C[C@H]2N(C)C1)CN4C(C)=O [NGx02] | – | – | – | – | – | – | – | –
> 50 µg/mL | > 50 µg/mL | – | 50 µg/mL | > 50 µg/mL | COC(=O)[C@@H]1C[C@@H]2c3cc(F)cc4c3[C@H](C[C@H]2N(C)C1)CN4C(C)=O [NGx06] | – | – | – | – | – | – | – | –
> 50 µg/mL | > 50 µg/mL | 25 µg/mL | 50 µg/mL | > 50 µg/mL | COC(=O)[C@@H]1C[C@@H]2c3cc(OCc4ccccc4)cc4c3[C@H](C[C@H]2N(C)C1)CN4C(C)=O [NGx08] | – | – | – | – | – | – | – | –
> 50 µg/mL | > 50 µg/mL | – | 25 µg/mL | > 50 µg/mL | COC(=O)[C@@H]1C[C@@H]2c3cc(N)cc4c3[C@H](C[C@H]2N(C)C1)CN4C(C)=O [NGx10] | – | – | – | – | – | – | – | –
> 50 µg/mL | > 50 µg/mL | – | 25 µg/mL | > 50 µg/mL | COC(=O)[C@@H]1C[C@@H]2c3cc([N+](=O)[O-])cc4c3[C@H](C[C@H]2N(C)C1)CN4C(C)=O [NGx11] | – | – | – | – | – | – | – | –
> 50 µg/mL | > 50 µg/mL | 50 µg/mL | 25 µg/mL | > 50 µg/mL | COC(=O)C1CC2c3cc(O)cc4c3C(CC2N(C)C1)CN4C(C)=O (centres unmarked) [NGx12] | – | – | – | – | – | – | – | –

Second part, the compound before the results:

Compound | MIC (C. neoformans ATCC 90113; [1]) | MIC (C. neoformans ATCC 90113; [2]) | ATCC36556 MIC-2 (C. neoformans ATCC 36556; [3]) | MIC (C. neoformans ATCC 36556; [4]) | MIC (C. neoformans ATCC 36556; [5]) | ATCC36556 MIC-0 (C. neoformans ATCC 36556; [6]) | MIC (C. neoformans ATCC 90113; read-out: ATCC90113 MIC-0) | MIC (C. neoformans ATCC 90113; read-out: ATCC90113 MIC-2) | MIC (C. neoformans ATCC 36556; read-out: ATCC36556 MIC-0) | MIC (C. neoformans ATCC 36556; read-out: ATCC36556 MIC-2) | C. neoformans growth inhibition (in words) (C. neoformans ATCC 36556) | ATCC90113 MIC-0 (C. neoformans ATCC 90113; [6]) | ATCC90113 MIC-2 (C. neoformans ATCC 90113; [3])
C[C@@H]1[C@H](O)[C@@H](C)/C=C/C=C/C=C/C=C/C=C/C=C/C=C/[C@H](O[C@@H]2O[C@H](C)[C@@H](O)[C@H](N)[C@@H]2O)C[C@@H]2O[C@](O)(C[C@@H](O)C[C@@H](O)[C@H](O)CC[C@@H](O)C[C@@H](O)CC(=O)O[C@H]1C)C[C@H](O)[C@H]2C(=O)O [Amphotericin B, reference compound] | 0.8 µg/mL | 1.6 µg/mL | 0.1 µg/mL | 0.2 µg/mL | 0.2 µg/mL | 0.4 µg/mL | – | – | – | – | – | – | –
CN1C[C@H](C(=O)O)C[C@@H]2c3cccc4c3[C@H](C[C@H]21)CN4C(=O)OC(C)(C)C [NGx01] | – | – | – | – | – | – | > 50 µg/mL | > 50 µg/mL | > 50 µg/mL | > 50 µg/mL | – | – | –
CN1C[C@H](C(=O)Nc2cccc(C(F)(F)F)c2)C[C@@H]2c3cccc4c3[C@H](C[C@H]21)CN4C(=O)OC(C)(C)C [NGx03] | > 50 µg/mL | > 50 µg/mL | 3.1 µg/mL | 3.13 µg/mL | 6.25 µg/mL | 6.3 µg/mL | – | – | – | – | inhibit C. neoformans growth; also recorded: scored anti-fungal activity | – | –
CN1C[C@H](C(=O)Nc2ccccc2)C[C@@H]2c3c(O)ccc4c3[C@H](C[C@H]21)CN4C(=O)OC(C)(C)C [NGx07] | 13 µg/mL | > 50 µg/mL | – | 6.3 µg/mL | > 50 µg/mL | – | – | – | – | – | inhibit C. neoformans growth; also recorded: scored anti-fungal activity | – | –
COC(=O)[C@@H]1C[C@@H]2c3cc([N+](=O)[O-])cc4c3[C@H](C[C@H]2N(C)C1)CN4C(=O)OCC(Cl)(Cl)Cl [NGx09] | – | > 50 µg/mL | – | – | > 50 µg/mL | – | – | – | – | – | inhibit C. neoformans growth | – | –
COC(=O)[C@@H]1C[C@@H]2c3cc([N+](=O)[O-])cc4c3[C@@H](CN4)C[C@H]2N(C)C1 [NGx14] | > 50 µg/mL | > 50 µg/mL | – | 50 µg/mL | > 50 µg/mL | – | – | – | – | – | – | – | –
COC(=O)C1CC2c3cccc4c3C(CC2N(C(C)C)C1)CN4C(=O)OC(C)(C)C (centres unmarked) [NGx15] | > 50 µg/mL | > 50 µg/mL | – | > 50 µg/mL | > 50 µg/mL | – | – | – | – | – | – | – | –
COC(=O)[C@@H]1C[C@@H]2c3cccc4c3[C@H](C[C@H]2N(C)C1)CN4C(=O)OCC(Cl)(Cl)Cl [NGx16] | 13 µg/mL | 50 µg/mL | – | 13 µg/mL | 50 µg/mL | > 50 µg/mL | – | – | – | – | inhibit C. neoformans growth | > 50 µg/mL | –
COC(=O)C1CC2c3cccc4c3C(CC2N(C)C1)CN4C=O (centres unmarked) [NGx17] | > 50 µg/mL | > 50 µg/mL | > 50 µg/mL | 50 µg/mL | > 50 µg/mL | – | – | – | – | – | – | – | –
CN1CC(C(=O)O)CC2c3cccc4c3C(CC21)CN4C(=O)OCc1ccccc1 (centres unmarked) [NGx18] | > 50 µg/mL | > 50 µg/mL | – | > 50 µg/mL | > 50 µg/mL | – | – | – | – | – | – | – | –
COC(=O)[C@@H]1C[C@@H]2c3c([N+](=O)[O-])ccc4c3[C@H](C[C@H]2N(C)C1)CN4C(=O)OCC(Cl)(Cl)Cl [NGx19] | 6.25 µg/mL | > 50 µg/mL | 13 µg/mL | 12.5 µg/mL | 50 µg/mL | 25 µg/mL | – | – | – | – | inhibit C. neoformans growth | – | 6.3 µg/mL
